1 molecule from BindingDB's records for patent US9394289 (Janssen Pharmaceutica, 2016) can be followed below.

The experiment concerns the target Macrophage colony-stimulating factor 1 receptor (Homo sapiens, UniProt P07333). Put plainly: Fluorescence Polarization Competition Immunoassay. The note with it: pH 7.5; 25 °C. On the procedure:
The assay buffer used was 100 mM 4-(2-hydroxyethyl)piperazine 1-ethanesulfonic acid (HEPES), pH 7.5, 1 mM 1,4-dithio-DL-threitol (DTT), 0.01% (v/v) Tween-20. Compounds were diluted in assay buffer containing 4% dimethylsulfoxide (DMSO) just prior to the assay. To each well, 5 μL of compound were added followed by the addition of 3 μL of a mix containing 33 nM c-fms (Johnson & Johnson PRD) and 16.7 mM MgCl2 (Sigma) in assay buffer. The kinase reaction was initiated by adding 2 μL of 5 mM ATP (Sigma) in assay buffer. The final concentrations in the assay were 10 nM c-fms, 1 mM ATP, 5 mM MgCl2, 2% DMSO. Control reactions were ran in each plate: in positive and negative control wells, assay buffer (made 4% in DMSO) was substituted for the compound; in addition, positive control wells received 1.2 μL of 50 mM ethylenediaminetetraaceticacid (EDTA). The plates were incubated at room temperature for 45 min. At the end of the incubation, the reaction was quenched with 1.2 μL of 50 mM EDTA (EDTA was not added to the positive control wells at this point; see above). Following a 5-min incubation, each well received 10 μL of a 1:1:3 mixture of anti-phosphotyrosine antibody, 10×, PTK green tracer, 10× (vortexed), FP dilution buffer, respectively (all from PanVera, cat. #P2837). The plate was covered, incubated for 30 min at room temperature and the fluorescence polarization was read on the Analyst. […]
For orientation: Polarisation of emitted light reports the rotation of a fluorescent probe.

Sequence of Macrophage colony-stimulating factor 1 receptor (P07333 whole entry): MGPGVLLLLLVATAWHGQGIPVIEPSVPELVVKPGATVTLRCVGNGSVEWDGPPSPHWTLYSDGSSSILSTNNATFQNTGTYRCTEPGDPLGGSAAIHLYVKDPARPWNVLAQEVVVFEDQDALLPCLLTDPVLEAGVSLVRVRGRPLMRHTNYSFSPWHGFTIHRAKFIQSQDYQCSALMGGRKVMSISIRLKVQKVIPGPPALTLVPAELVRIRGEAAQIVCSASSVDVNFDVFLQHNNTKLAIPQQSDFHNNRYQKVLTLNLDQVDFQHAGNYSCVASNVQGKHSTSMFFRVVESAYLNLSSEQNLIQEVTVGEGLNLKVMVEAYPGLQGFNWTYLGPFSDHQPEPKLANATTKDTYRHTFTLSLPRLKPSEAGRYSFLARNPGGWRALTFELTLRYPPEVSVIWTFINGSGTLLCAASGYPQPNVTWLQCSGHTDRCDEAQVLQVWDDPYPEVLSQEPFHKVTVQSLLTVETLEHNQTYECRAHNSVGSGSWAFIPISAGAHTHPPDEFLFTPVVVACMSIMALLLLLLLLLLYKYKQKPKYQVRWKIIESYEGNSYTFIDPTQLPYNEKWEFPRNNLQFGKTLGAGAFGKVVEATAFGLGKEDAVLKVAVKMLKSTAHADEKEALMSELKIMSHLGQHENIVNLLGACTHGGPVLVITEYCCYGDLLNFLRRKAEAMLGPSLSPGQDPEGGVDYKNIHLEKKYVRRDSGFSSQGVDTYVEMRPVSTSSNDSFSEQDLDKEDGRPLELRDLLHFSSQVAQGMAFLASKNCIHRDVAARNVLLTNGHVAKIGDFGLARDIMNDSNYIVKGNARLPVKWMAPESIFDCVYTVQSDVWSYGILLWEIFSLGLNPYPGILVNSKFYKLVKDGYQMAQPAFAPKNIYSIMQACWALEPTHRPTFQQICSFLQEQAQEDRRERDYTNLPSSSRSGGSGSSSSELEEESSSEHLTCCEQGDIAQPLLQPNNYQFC

Consider `N#Cc1c[nH]c(C(=O)Nc2ccc(C3(O)CCS(=O)(=O)CC3)cc2C2=CCCCC2)n1` [US9394289, 15], for which the IC50 – broadly, the concentration that gives 50% inhibition – came out at 2.9 nM. This counts as single-digit nanomolar.
